# Laboratory results as given in PMC9144807, “Fluorine-18 Labeled Urea-Based Ligands Targeting Prostate-Specific Membrane Antigen (PSMA) with Increased Tumor and Decreased Renal Uptake” (Pharmaceuticals, 2022).
# Several values for one entry are separate records, joined by “and”; a condition that tells them apart may be missing. Identical values can stand only once. Like-named read-outs stand apart in the source and are kept apart here.
# Experiments:
# PSMA [1] = biological target: T1, PSMA (Homo sapiens, UniProt Q04609); assay: In vitro saturation binding assay with PC3(+) tumor membrane preparations
# T1 construct: expressed in transfected cells; host or cells: PC3(+) (PC3 human prostate cancer cells transfected with human PSMA), grown as xenograft tumors in athymic mice; tumor membrane preparations
# Method: (§1) PC3(−) (wildtype human prostate cancer cell line, PSMA negative) and PC3(+) (transfected with human PSMA) were provided by Dr. Hisataka Kobayashi. Cell lines were grown at 37 °C in 5% CO2 in RPMI-1640 supplemented with 10% FBS, 2 mM L-glutamine and Pen/Strep/Amphotericin B. PC3(+) and PC3(−) cell suspensions [2 × 10^6 cells; PBS:Matrigel (70:30)] from in vitro cell culture were subcutaneously implanted (right shoulder) into athymic mice (Athymic NCr- nu/nu, Charles River Laboratory, 4 weeks old) for use as positive and negative controls, respectively, for in vitro or in vivo studies. When tumors reached the appropriate size (>100 mg) the xenograft mice were used for in vivo biodistributions and imaging studies or the tumors were excised and further processed to obtain membrane preparations for in vitro assays as described previously.
# In vitro saturation studies were performed to determine binding affinities (Kd) and PSMA expression levels (Bmax) using tumor membrane preparations from PC3(−) and PC3(+) PSMA xenografts (human prostate cancer cell line transfected with human PSMA; PC3(+)). […] Filter papers were collected, and the radioactive content was quantified by gamma counting (PerkinElmer 2480 Wizard3). […] Aliquots of each membrane preparation were taken for the determination of the protein concentration (Bradford method).
# [2] = Fraction of intact tracer (parent) in blood and kidney by TLC; type: in vivo, mice; conditions: for %Parent compound in blood (TLC analysis): 60 min, mean ± SD, n = 2–5; for tissue uptake at 1 h: 60 min post-injection; for tissue uptake at 2 h: 120 min post-injection
# Description: In some cases, additional blood samples and/or tissue samples after gamma counting were taken for determining the fraction of intact radiolabeled tracer (parent) using thin-layer chromatography (TLC). For these TLC determinations: tissues were placed in equal volumes of acetonitrile and homogenized, or serum was obtained from the blood samples and mixed with an equal volume of acetonitrile. Following centrifugation of the samples, supernatants were collected and the radioactive content of the supernatants and pellets were determined. The supernatants were then applied to thin-layer chromatography (TLC) plates. The TLC plates were developed [solvent system: ethyl acetate (80%), methanol (10%) and acetic acid (10%)], and exposed on a phosphorimaging plate which was scanned the next day.
# PC3(+) xenografts [3] = assay: In vivo biodistribution in PC3(+) xenograft mice; design: key to salivary gland T:M / Femur T:M / Blood T:M / Kidney T:M / Liver T:M: T:M = (%ID/g in tissue) / (%ID/g in muscle); conditions: for Radioactivity in the blood: 60 min (Figure 5A)
# Method: as §1
# (§2) Tumor-bearing mice (tumor weights: 0.1–0.8 g) were injected while awake via the tail vein with each of the tracers [0.74–3.7 MBq (20 to 100 µCi), 10 to 80 pmol] and euthanized (via CO2 inhalation) at selected times. […] Blood samples and tissues were excised from each animal, weighed, and radioactivity content was determined (Perkin Elmer 2480 Wizard3). Radioactivity content in the blood and each tissue was expressed as % injected dose per gram of tissue [%ID/g; (Formula (1))] and then normalized for body weight to a 20 g mouse (Formula (2)) from which Tissue:Muscle ratios [T:M; (Formula (3))] were determined as follows:(1) %ID/g =[counts per minute cpmtissue / tissue weight g]×100/cpmtotal injected dose
# (§3) %ID/g (normalized to a 20 g mouse) = (%ID/g) × (body weight/20 g)(2)
# (§4) (3) T:M=%ID/gtissue/%ID/gmuscle
# PC3(−) xenografts = assay: In vivo biodistribution in PC3(−) xenograft mice (negative control); conditions: 60 min; for PC3(−) Tumor T:M: mean ± SE, n = 8–10
# Method: as §1, §2, §3, §4
# [4] = test system: PC3(+) tumor xenograft mice; assay: Small animal PET imaging with ROI analysis, PC3(+) tumor xenograft mice; type: in vivo; conditions: 60 min post-injection
# Method: Tumor-bearing mice were anesthetized with isoflurane/O2 (1.5–3% v/v) and imaged at various times after intravenous injection of each tracer [2.6 to 3.7 MBq (70 to 100 µCi)]. Whole body static PET images were obtained at 2 bed positions (FOV = 2.0 cm, total imaging time: 10 min) using a BioPET scanner (Bioscan Inc., Washington, DC, USA). The images were reconstructed by a 3-dimensional ordered-subsets expectation maximum (3D-OSEM).
# PC3(+) xenografts [5] = assay: Blocking biodistribution study in PC3(+) xenografts, coinjection of non-radioactive DCFPyL; type: in vivo, mice; conditions: 60 min
# Method: as §2, §3, §4
# PSMA [6] = biological target: T1, PSMA; assay: In vitro competition binding assay with [18F]DCFPyL as radioligand, PC3(+) tumor membrane preparations
# [7] = 15 min post-injection, mean ± SE
# [8] = 30 min post-injection, mean ± SE
# [9] = mouse, blood, intravenous, mean ± SE, read-out: Blood uptake, parent (corrected for metabolites)
# [10] = mouse, kidney, intravenous, mean ± SE, read-out: Kidney uptake, parent (corrected for metabolites)
# [11] = 60 min post-injection, mean ± SE
# [12] = 120 min post-injection, mean ± SE
# T1 sequence (Q04609 whole entry): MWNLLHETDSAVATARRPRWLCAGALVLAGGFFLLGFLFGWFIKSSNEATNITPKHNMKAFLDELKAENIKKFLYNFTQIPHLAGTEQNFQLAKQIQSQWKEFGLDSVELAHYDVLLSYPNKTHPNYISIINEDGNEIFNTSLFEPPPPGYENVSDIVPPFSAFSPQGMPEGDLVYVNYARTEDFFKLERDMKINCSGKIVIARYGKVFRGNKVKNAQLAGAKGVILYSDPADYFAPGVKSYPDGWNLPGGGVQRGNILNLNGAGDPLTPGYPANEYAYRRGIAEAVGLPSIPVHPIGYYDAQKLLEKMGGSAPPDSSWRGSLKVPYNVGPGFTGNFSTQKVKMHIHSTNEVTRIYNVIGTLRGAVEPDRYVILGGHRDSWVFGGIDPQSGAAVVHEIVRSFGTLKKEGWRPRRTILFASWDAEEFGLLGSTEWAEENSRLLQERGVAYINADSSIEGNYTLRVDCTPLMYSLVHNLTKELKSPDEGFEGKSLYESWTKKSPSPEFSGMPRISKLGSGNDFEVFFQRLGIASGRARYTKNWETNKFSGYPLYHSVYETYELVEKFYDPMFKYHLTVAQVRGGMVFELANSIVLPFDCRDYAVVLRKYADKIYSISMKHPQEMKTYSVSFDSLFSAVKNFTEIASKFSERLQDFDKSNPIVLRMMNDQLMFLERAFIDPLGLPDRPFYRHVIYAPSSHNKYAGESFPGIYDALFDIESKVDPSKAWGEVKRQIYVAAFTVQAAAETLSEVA
compound,measurement,setting,value
O=C(O)CC[C@H](NC(=O)N[C@@H](CCCCNC(=O)CO/N=C\c1ccc([18F])nc1)C(=O)O)C(=O)O [[^18F]1b],Kd,"PSMA [1]; saturation assays, mean (SE), n = 3–5",0.458 nM
same,%Parent compound in blood (TLC analysis),[2],74.4 ± 7.6%
same,decrease of blood radioactivity compared to [18F]DCFPyL,PC3(+) xenografts [3]; 60 min,40%
same,increase of PC3(+) tumor T:M compared to [18F]DCFPyL,PC3(+) xenografts [3]; 60 min,1.6 fold
same,increase of kidney T:M compared to [18F]DCFPyL,PC3(+) xenografts [3]; 60 min,1.4 fold
same,Radioactivity in the blood,PC3(+) xenografts [3],0.309 %ID/g
same,Blood T:M,"PC3(+) xenografts [3]; 60 min, mean ± SE, n = 8–10",2.26 ± 0.22
same,Femur T:M,"PC3(+) xenografts [3]; 60 min, mean ± SE, n = 8–10",1.80 ± 0.17
same,Kidney T:M,"PC3(+) xenografts [3]; 60 min, mean ± SE, n = 8–10",1013 ± 34
same,Liver T:M,"PC3(+) xenografts [3]; 60 min, mean ± SE, n = 8–10",24.9 ± 2.0
same,PC3(+) Tumor T:M,"PC3(+) xenografts [3]; 60 min, mean ± SE, n = 8–10",204 and 203.7 ± 34.5
same,PC3(−) Tumor T:M,PC3(−) xenografts,1.43 ± 0.29
"O=C(O)CCC(NC(=O)NC(CCCCNC(=O)c1ccc([18F])nc1)C(=O)O)C(=O)O (stereo not shown) [[^18F]DCFPyL, 2-(3-(1-carboxy-5-[(6-[^18F]fluoropyridine-3-carbonyl)-amino]-pentyl)-ureido)-pentanedioic acid, reference compound]",Bmax (PSMA expression level),PSMA [1]; n = 5,13.95 ± 1.60 fmol/µg of protein
same,PC3(+) tumor uptake from ROI analysis of PET images,[4],19 %ID/g
same,kidney uptake from ROI analysis of PET images,[4],187 %ID/g
same,liver uptake from ROI analysis of PET images,[4],3 %ID/g
same,"Blood uptake, parent (corrected for metabolites)",[2]; [7],1.06 ± 0.05 %ID/g
same,"Kidney uptake, parent (corrected for metabolites)",[2]; [8],20.18 ± 0.72 %ID/g
same,%Parent compound in blood (TLC analysis),[2],49.9 ± 10.7%
same,tissue uptake at 0.5 h,"[2]; mouse, blood, intravenous, 30 min post-injection, mean ± SE, read-out: Blood uptake, parent (corrected for metabolites)",0.4 ± 0.02 %ID/g
same,tissue uptake at 1 h,[2]; [9],0.26 ± 0.02 %ID/g
same,tissue uptake at 2 h,[2]; [9],0.045 ± 0.003 %ID/g
same,tissue uptake at 0.25 h,"[2]; mouse, kidney, intravenous, 15 min post-injection, mean ± SE, read-out: Kidney uptake, parent (corrected for metabolites)",17.1 ± 0.84 %ID/g
same,tissue uptake at 1 h,[2]; [10],17.6 ± 1.48 %ID/g
same,tissue uptake at 2 h,[2]; [10],3.41 ± 0.46 %ID/g
same,% of parent in blood,"[2]; nude, mouse, in vivo",50-40
same,% of parent in kidney,"[2]; nude, mouse, in vivo",16-7
same,increase of liver T:M in blocked group compared to tracer-only group,PC3(+) xenografts [5],2.7 fold
same,PC3(+) tumor T:M of the blocked group,PC3(+) xenografts [5]; coinjection of DCFPyL 1000×,50
same,decrease of PC3(+) tumor T:M in blocked group compared to non-blocked group,PC3(+) xenografts [5]; coinjection of DCFPyL 1000×,60%
same,decrease of kidney T:M in blocked group,PC3(+) xenografts [5]; coinjection of DCFPyL 1000×,96%
same,decrease of spleen T:M in blocked group,PC3(+) xenografts [5]; coinjection of DCFPyL 1000×,81%
same,liver T:M of the blocked group,PC3(+) xenografts [5]; coinjection of DCFPyL 1000×,27
same,reduction in blood and most tissue uptakes (%ID/g) compared to tracer-only group,PC3(+) xenografts [5]; coinjection of DCFPyL 1000×,> 50%
same,PC3(+) tumor T:M of the tracer-only group of the blocking study,PC3(+) xenografts [5]; no blocking dose,141
same,PC3(+) tumor uptake,PC3(+) xenografts [3]; 15 min,18.6 %ID/g
same,salivary gland T:M,PC3(+) xenografts [3]; 15 min,2.7
same,"Blood uptake, total radioactivity",PC3(+) xenografts [3]; [7],2.66 ± 0.12 %ID/g
same,"Kidney uptake, total radioactivity",PC3(+) xenografts [3]; [7],132.9 ± 6.6 %ID/g
same,"Blood uptake, total radioactivity",PC3(+) xenografts [3]; [8],1.03 ± 0.05 %ID/g
same,"Kidney uptake, total radioactivity",PC3(+) xenografts [3]; [8],126.9 ± 5.6 %ID/g
same,PC3(+) tumor uptake,PC3(+) xenografts [3]; 60 min,25.6 %ID/g
same,Radioactivity in the blood,PC3(+) xenografts [3],0.519 %ID/g
same,Blood T:M,"PC3(+) xenografts [3]; 60 min, mean ± SE, n = 8–10",2.29 ± 0.15
same,Femur T:M,"PC3(+) xenografts [3]; 60 min, mean ± SE, n = 8–10",0.90 ± 0.09
same,Kidney T:M,"PC3(+) xenografts [3]; 60 min, mean ± SE, n = 8–10",695.1 ± 76.0
same,Liver T:M,"PC3(+) xenografts [3]; 60 min, mean ± SE, n = 8–10",9.88 ± 7.4
same,PC3(+) Tumor T:M,"PC3(+) xenografts [3]; 60 min, mean ± SE, n = 8–10",124
same,"Blood uptake, total radioactivity",PC3(+) xenografts [3]; [11],0.52 ± 0.06 %ID/g
same,"Kidney uptake, total radioactivity",PC3(+) xenografts [3]; [11],147.7 ± 11.6 %ID/g
same,PC3(+) tumor uptake,PC3(+) xenografts [3]; 120 min,20.8 %ID/g
same,salivary gland T:M,PC3(+) xenografts [3]; 120 min,2.0
same,"Blood uptake, total radioactivity",PC3(+) xenografts [3]; [12],0.13 ± 0.01 %ID/g
same,"Kidney uptake, total radioactivity",PC3(+) xenografts [3]; [12],50.2 ± 3.6 %ID/g
same,Femur uptake,PC3(+) xenografts [3]; all times 15 to 120 min,< 1 %ID/g
same,Femur T:M,PC3(+) xenografts [3]; all times except 120 min,< 1.8
same,salivary gland radioactivity cleared,PC3(+) xenografts [3]; at 120 min,92%
same,decrease of kidney uptake from 15 to 120 min,"PC3(+) xenografts [3]; mouse, in vivo",65%
same,decrease of salivary gland T:M from 15 to 120 min,"PC3(+) xenografts [3]; mouse, in vivo",34%
same,increase in tumor T:M from 15 to 120 min,"PC3(+) xenografts [3]; mouse, in vivo",11 fold
same,PC3(−) tumor uptake,PC3(−) xenografts,0.3 %ID/g
same,PC3(−) tumor uptake as fraction of uptake in PC3(+) tumors,PC3(−) xenografts,< 2%
same,PC3(−) Tumor T:M,PC3(−) xenografts,1.50 ± 0.17
"O=C(O)CC[C@H](NC(=O)N[C@@H](CCCCNC(=O)CO/N=C\c1ccc(F)cc1)C(=O)O)C(=O)O [1a, (((S)-5-(2-(aminooxy)acetamido)-1-carboxypentyl)carbamoyl)-L-glutamic acid 4-fluorobenzaldehyde oxime, reference compound]",Ki,PSMA [6],0.101 nM
